# Measured values taken from patent US20240246966A1, “NEW PYRAZOLO[1,5-a] PYRIMIDINE DERIVATIVES AS SIGMA LIGANDS” (ACONDICIONAMIENTO TARRASENSE, priority 2021, published 2024).
# How the values were obtained:
# [1] = target: T1, Human σ1 Receptor (Homo sapiens, UniProt Q99720); test: Human σ1 receptor radioligand assay ([3H](+)-pentazocine, transfected HEK-293 membranes); conditions: human σ1, [3H](+)-pentazocine 5 nM, binding expressed as Ki, read-out: Binding σ-1
# T1 construct: expressed in transfected cells; host or cells: HEK-293
# Description: Human σ1 Receptor Radioligand Assay
# Transfected HEK-293 membranes (7 μg) were incubated with 5 nM of [^3H](+)-pentazocine in assay buffer containing Tris-HCl 50 mM at pH 8. NBS (non-specific binding) was measured by adding 10 μM haloperidol. The binding of the test compound was measured at either one concentration (% inhibition at 1 or 10 μM) or five different concentrations to determine affinity values (Ki). Plates were incubated at 37° C. for 120 minutes. After the incubation period, the reaction mix was then transferred to MultiScreen HTS, FC plates (Millipore), filtered and plates were washed 3 times with ice-cold 10 mM Tris-HCL (pH 7.4). Filters were dried and counted at approximately 40% efficiency in a MicroBeta scintillation counter (Perkin-Elmer) using EcoScint liquid scintillation cocktail.
# [2] = target: T2, Human σ2/TMEM97 receptor (Homo sapiens, UniProt Q5BJF2); test: Binding assay to human σ2/TMEM97 receptor ([3H]-DTG, transfected HEK-293 membranes); conditions: human σ2/TMEM97, [3H]-DTG 10 nM, binding expressed as Ki, read-out: Binding σ-2
# T2 construct: expressed in transfected cells; host or cells: HEK-293
# Description: Binding Assay to Human ρ2/TMEM97 Receptor
# Transfected HEK-293 membranes (15 μg) were incubated with 10 nM [^3H]-1,3-Di-o-tolylguanidine ( DTG) in assay buffer containing Tris-HCl 50 mM at pH 8.0. NSB (non-specific binding) was measured by adding 10 μM haloperidol. The binding of the test compound was measured at either one concentration (% inhibition at 1 or 10 μM) or five different concentrations to determine affinity values (Ki). Plates were incubated at 25° C. for 120 minutes. After the incubation period, the reaction mix was transferred to MultiScreen HTS, FC plates (Millipore), filtered and washed 3 times with ice-cold 10 mM Tris-HCL (pH 8.0). Filters were dried and counted at approximately 40% efficiency in a MicroBeta scintillation counter (Perkin-Elmer) using EcoScint liquid scintillation cocktail.
# T2 sequence (Q5BJF2 whole entry): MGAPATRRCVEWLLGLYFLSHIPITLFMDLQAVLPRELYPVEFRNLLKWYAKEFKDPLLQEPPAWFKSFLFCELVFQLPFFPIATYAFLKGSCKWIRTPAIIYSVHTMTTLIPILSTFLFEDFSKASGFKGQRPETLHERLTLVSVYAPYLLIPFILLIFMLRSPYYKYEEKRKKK
# T1 sequence (Q99720 whole entry): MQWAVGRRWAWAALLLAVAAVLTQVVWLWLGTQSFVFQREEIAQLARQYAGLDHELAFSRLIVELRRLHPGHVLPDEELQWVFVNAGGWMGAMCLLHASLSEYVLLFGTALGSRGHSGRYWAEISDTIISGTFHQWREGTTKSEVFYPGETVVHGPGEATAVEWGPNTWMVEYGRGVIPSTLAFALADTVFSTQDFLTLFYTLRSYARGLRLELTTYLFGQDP
Ki [1] [nM],Ki [2] [nM],SMILES
< 100,100 to 500,"FC(F)(F)c1ccc(-n2ccc3cc(CN4CC5(CCOCC5)C4)cnc32)cn1 [Example 55, 2-((1-(6-(Trifluoromethyl)pyridin-3-yl)-1H-pyrrolo[2,3-b]pyridin-5-yl)methyl)-7-oxa-2-azaspiro[3.5]nonane]"
< 100,500 to 1000,"FC(F)(F)c1cccc(-c2cnn3cc(CN4CCC5(CC4)COC5)cnc23)n1 [Example 14, 7-((3-(6-(Trifluoromethyl)pyridin-2-yl)pyrazolo[1,5-a]pyrimidin-6-yl)methyl)-2-oxa-7-azaspiro[3.5]nonane]"
< 100,> 1000,"COC1CCN(Cc2cnc3c(-c4ccnc(C(F)(F)F)c4)cnn3c2)CC1 [Example 34, 6-((4-Methoxypiperidin-1-yl)methyl)-3-(2-(trifluoromethyl)pyridin-4-yl)pyrazolo[1,5-a]pyrimidine]"
< 100,100 to 500,"OCC1(CCl)CCN(Cc2cnc3c(-c4ccnc(C(F)(F)F)c4)cnn3c2)CC1 [Example 60, (4-(Chloromethyl)-1-((3-(2-(trifluoromethyl)pyridin-4-yl)pyrazolo[1,5-a]pyrimidin-6-yl)methyl)piperidin-4-yl)methanol]"
< 100,> 1000,"FC(F)(F)c1ccc(-c2cnn3cc(CN4CC5(CCOCC5)C4)cnc23)cn1 [Example 22, 2-((3-(6-(Trifluoromethyl)pyridin-3-yl)pyrazolo[1,5-a]pyrimidin-6-yl)methyl)-7-oxa-2-azaspiro[3.5]nonane]"
< 100,100 to 500,"FC(F)(F)c1cc(-n2ccc3cc(CN4CCC5(CC4)COC5)cnc32)ccn1 [Example 38, 7-((1-(2-(Trifluoromethyl)pyridin-4-yl)-1H-pyrrolo[2,3-b]pyridin-5-yl)methyl)-2-oxa-7-azaspiro[3.5]nonane]"
< 100,> 1000,"Cc1cc(-c2cnn3cc(CN4CCC5(CC4)COC5)cnc23)ccn1 [Example 15, 7-((3-(2-Methylpyridin-4-yl)pyrazolo[1,5-a]pyrimidin-6-yl)methyl)-2-oxa-7-azaspiro[3.5]nonane]"
100 to 500,> 1000,"c1cc(-c2cnn3cc(CN4CCCC4)cnc23)ccn1 [Example 2, 3-(Pyridin-4-yl)-6-(pyrrolidin-1-ylmethyl)pyrazolo[1,5-a]pyrimidine]"
< 100,100 to 500,"CCOCC1CCN(Cc2cnc3c(ccn3-c3ccnc(C(F)(F)F)c3)c2)CC1 [Example 40, 5-((4-(Ethoxymethyl)piperidin-1-yl)methyl)-1-(2-(trifluoromethyl)pyridin-4-yl)-1H-pyrrolo[2,3-b]pyridine]"
500 to 1000,> 1000,"c1ccc(-c2cnn3cc(CN4CCC5(CC4)COC5)cnc23)nc1 [Example 18, 7-((3-(Pyridin-2-yl)pyrazolo[1,5-a]pyrimidin-6-yl)methyl)-2-oxa-7-azaspiro[3.5]nonane]"
< 100,> 1000,"FC(F)(F)c1cnccc1-c1cnn2cc(CN3CCC4(CC3)COC4)cnc12 [Example 19, 7-((3-(3-(Trifluoromethyl)pyridin-4-yl)pyrazolo[1,5-a]pyrimidin-6-yl)methyl)-2-oxa-7-azaspiro[3.5]nonane]"
< 100,100 to 500,"COCC1CCN(Cc2cnc3c(ccn3-c3ccnc(C(F)(F)F)c3)c2)CC1 [Example 39, 5-((4-(Methoxymethyl)piperidin-1-yl)methyl)-1-(2-(trifluoromethyl)pyridin-4-yl)-1H-pyrrolo[2,3-b]pyridine]"
< 100,> 1000,"COCC1CCN(Cc2cnc3c(-c4ccnc(C)c4)cnn3c2)CC1 [Example 25, 6-((4-(Methoxymethyl)piperidin-1-yl)methyl)-3-(2-methylpyridin-4-yl)pyrazolo[1,5-a]pyrimidine]"
< 100,100 to 500,"FC(F)(F)c1cc(-n2ncc3cc(CN4CCC5(CC4)COC5)cnc32)ccn1 [Example 58, 7-((1-(2-(Trifluoromethyl)pyridin-4-yl)-1H-pyrazolo[3,4-b]pyridin-5-yl)methyl)-2-oxa-7-azaspiro[3.5]nonane]"
< 100,500 to 1000,"COC1CCN(Cc2cnc3c(ccn3-c3ccc(C(F)(F)F)nc3)c2)CC1 [Example 51, 5-((4-Methoxypiperidin-1-yl)methyl)-1-(6-(trifluoromethyl)pyridin-3-yl)-1H-pyrrolo[2,3-b]pyridine]"
< 100,> 1000,"COc1ncccc1-c1cnn2cc(CN3CCCC3)cnc12 [Example 4, 3-(2-Methoxypyridin-3-yl)-6-(pyrrolidin-1-ylmethyl)pyrazolo[1,5-a]pyrimidine]"
100 to 500,500 to 1000,"Cc1nn2cc(CN3CCC4(CC3)COC4)cnc2c1-c1ccnc(C(F)(F)F)c1 [Example 20, 7-((2-Methyl-3-(2-(trifluoromethyl)pyridin-4-yl)pyrazolo[1,5-a]pyrimidin-6-yl)methyl)-2-oxa-7-azaspiro[3.5]nonane]"
< 100,> 1000,"c1ccc(C2CCN(Cc3cnc4c(-c5ccncc5)cnn4c3)CC2)cc1 [Example 5, 6-((4-Phenylpiperidin-1-yl)methyl)-3-(pyridin-4-yl)pyrazolo[1,5-a]pyrimidine]"
100 to 500,> 1000,"FC(F)(F)c1cc(-c2cnn3cc(CN4CCC5(CCO5)CC4)cnc23)ccn1 [Example 7, 7-((3-(2-(Trifluoromethyl)pyridin-4-yl)pyrazolo[1,5-a]pyrimidin-6-yl)methyl)-1-oxa-7-azaspiro[3.5]nonane]"
100 to 500,> 1000,"COC1CCN(Cc2cnc3c(-c4ccnc(C)c4)cnn3c2)CC1 [Example 23, 6-((4-Methoxypiperidin-1-yl)methyl)-3-(2-methylpyridin-4-yl)pyrazolo[1,5-a]pyrimidine]"
500 to 1000,> 1000,"FC1(F)CCN(Cc2cnc3c(-c4ccnc(C(F)(F)F)c4)cnn3c2)CC1 [Example 11, 6-((4,4-Difluoropiperidin-1-yl)methyl)-3-(2-(trifluoromethyl)pyridin-4-yl)pyrazolo[1,5-a]pyrimidine]"
500 to 1000,> 1000,"Fc1cnccc1-c1cnn2cc(CN3CCC4(CCO4)CC3)cnc12 [Example 8, 7-((3-(3-Fluoropyridin-4-yl)pyrazolo[1,5-a]pyrimidin-6-yl)methyl)-1-oxa-7-azaspiro[3.5]nonane]"
< 100,100 to 500,"FC(F)(F)c1cc(-c2cnn3cc(CN4CCC5(CCOCC5)CC4)cnc23)ccn1 [Example 32, 9-((3-(2-(Trifluoromethyl)pyridin-4-yl)pyrazolo[1,5-a]pyrimidin-6-yl)methyl)-3-oxa-9-azaspiro[5.5]undecane]"
< 100,100 to 500,"FC(F)(F)c1cc(-c2cnn3cc(CN4CCC5(CC4)COC5)ccc23)ccn1 [Example 57, 7-((3-(2-(Trifluoromethyl)pyridin-4-yl)pyrazolo[1,5-a]pyridin-6-yl)methyl)-2-oxa-7-azaspiro[3.5]nonane]"
< 100,> 1000,"Clc1cc(-c2cnn3cc(CN4CCC5(CC4)COC5)cnc23)ccn1 [Example 16, 7-((3-(2-Chloropyridin-4-yl)pyrazolo[1,5-a]pyrimidin-6-yl)methyl)-2-oxa-7-azaspiro[3.5]nonane]"
< 100,100 to 500,"COCC1CCN(Cc2cnc3c(ccn3-c3ccc(C(F)(F)F)nc3)c2)CC1 [Example 41, 5-((4-(Methoxymethyl)piperidin-1-yl)methyl)-1-(6-(trifluoromethyl)pyridin-3-yl)-1H-pyrrolo[2,3-b]pyridine]"
< 100,> 1000,"OCC1(CO)CCN(Cc2cnc3c(-c4ccnc(C(F)(F)F)c4)cnn3c2)CC1 [Example 59, (1-((3-(2-(Trifluoromethyl)pyridin-4-yl)pyrazolo[1,5-a]pyrimidin-6-yl)methyl)piperidine-4,4-diyl)dimethanol]"
< 100,> 1000,"FC(F)(F)c1cc(-c2cnn3cc(CN4CCC5(CCOC5)CC4)cnc23)ccn1 [Example 10, 8-((3-(2-(Trifluoromethyl)pyridin-4-yl)pyrazolo[1,5-a]pyrimidin-6-yl)methyl)-2-oxa-8-azaspiro[4.5]decane]"
< 100,500 to 1000,"FC(F)(F)c1ccc(-c2cnn3cc(CN4CCC5(CC4)COC5)cnc23)cn1 [Example 13, 7-((3-(6-(Trifluoromethyl)pyridin-3-yl)pyrazolo[1,5-a]pyrimidin-6-yl)methyl)-2-oxa-7-azaspiro[3.5]nonane]"
< 100,500 to 1000,"CCOCC1CCN(Cc2cnc3c(-c4ccnc(C(F)(F)F)c4)cnn3c2)CC1 [Example 30, 6-((4-(Ethoxymethyl)piperidin-1-yl)methyl)-3-(2-(trifluoromethyl)pyridin-4-yl)pyrazolo[1,5-a]pyrimidine]"
